Experimental data as given in patent publication US20110288082A1, “METHODS AND COMPOSITIONS FOR INHIBITION OF THE TRANSITIONAL ENDOPLASMIC RETICULUM ATPASE” (priority 2010, published 2011).
Like-named read-outs stand apart in the source and are kept apart here.

How the values were obtained:
p97 = p97 (Homo sapiens, UniProt P55072); assay: p97 ATPase assay (Kinase Glo Plus; biomol green for compounds that interfere with luciferase); assay type: biochemical
Description: Assay Buffer (20 μL of 2.5× concentration, where 1×=50 mM Tris pH 7.4, 20 mM MgCl2, 1 mM EDTA, 0.5 mM TCEP) was dispensed into each well of a 96 well plate. Purified p97 (25 μL of 50 μM) was diluted in 975 μL, of 1× Assay Buffer and 10 μL was dispensed in each well. Test compound (10 μL) or 5% DMSO (10 μL) was then added to each well and the plate was incubated at room temperature for 10 min. The ATPase assay was carried out by adding to each well 10 μL of 500 μM ATP (pH 7.5), incubating at room temperature for 60 min, and then adding 50 μL Kinase Glo Plus reagent (Promega) followed by a final 10 min incubation at room temperature in the dark. Luminescence was read on an Analyst AD (Molecular Devices). Compounds were assayed at a range of concentrations (0, 0.048, 0.24, 1.2, 6, 30 μM) in triplicate. The percent of remaining activity for each reaction was calculated using the following mathematical expression: ((Test Compound-High Control)/(Low Control-High Control))*100. Test_Compound is defined as wells containing test compound, Low_Control is defined as wells containing DMSO, High_Control is defined as wells containing no p97 protein. […] The result was expressed as mean +/− standard error. For assays with Myriad 12 and 19, 100 μL of biomol green reagent (Enzo Life Sciences) was added to each well instead of kinase Glo Plus (Promega) and absorbance at 630 nm was measured. This was done because these compounds interfered with luciferase activity. […]

[1] = test system: p97-dependent Ub^G76V-GFP degradation in HeLa cells; assay: Ub^G76V-GFP degradation (turn-over) assay; assay type: cell-based, human; conditions: Homo sapiens, HeLa
Description: Ub^G76V-GFP Degradation Assay
Two GFP images with 100 ms exposure time per well were acquired and the average GFP intensity per area of a HeLa cell was determined by using MetaXpress software. Mean GFP intensity of 300-500 cells was calculated using Excel. Normalized GFP intensity was calculated using the following formula: (Test compound−Background)/(Basal GFP intensity—Background). Where: Test compound is defined as Mean GFP intensity of Ub^G76V-GFP-expressing cells treated with the test compound. Background is defined as background GFP intensity of HeLa cells. Basal GFP intensity is defined as mean GFP intensity of Ub^G76V-GFP-expressing cells treated with DMSO. […] The percent of remaining k for each compound is calculated using the following formula: (Test compound/DMSO control)*100. Where: Test_compound is defined as k determined from wells containing test compound, DMSO control is defined as k determined from wells containing DMSO.

[2] = purified p97, ATP, 60 min room temperature, mean +/- standard error
[3] = read-out: IC50 (μM) Ub^G76V-GFP turn over, Ub^G76V-GFP-expressing HeLa cells, degradation rate constant k from 90 to 180 min, mean +/- standard error
[4] = read-out: IC50 (μM) Ub^G76V-GFP turn over, p97-dependent Ub^G76V-GFP degradation turn-over assay

Sequence of p97 (P55072 2-806 limits assumed): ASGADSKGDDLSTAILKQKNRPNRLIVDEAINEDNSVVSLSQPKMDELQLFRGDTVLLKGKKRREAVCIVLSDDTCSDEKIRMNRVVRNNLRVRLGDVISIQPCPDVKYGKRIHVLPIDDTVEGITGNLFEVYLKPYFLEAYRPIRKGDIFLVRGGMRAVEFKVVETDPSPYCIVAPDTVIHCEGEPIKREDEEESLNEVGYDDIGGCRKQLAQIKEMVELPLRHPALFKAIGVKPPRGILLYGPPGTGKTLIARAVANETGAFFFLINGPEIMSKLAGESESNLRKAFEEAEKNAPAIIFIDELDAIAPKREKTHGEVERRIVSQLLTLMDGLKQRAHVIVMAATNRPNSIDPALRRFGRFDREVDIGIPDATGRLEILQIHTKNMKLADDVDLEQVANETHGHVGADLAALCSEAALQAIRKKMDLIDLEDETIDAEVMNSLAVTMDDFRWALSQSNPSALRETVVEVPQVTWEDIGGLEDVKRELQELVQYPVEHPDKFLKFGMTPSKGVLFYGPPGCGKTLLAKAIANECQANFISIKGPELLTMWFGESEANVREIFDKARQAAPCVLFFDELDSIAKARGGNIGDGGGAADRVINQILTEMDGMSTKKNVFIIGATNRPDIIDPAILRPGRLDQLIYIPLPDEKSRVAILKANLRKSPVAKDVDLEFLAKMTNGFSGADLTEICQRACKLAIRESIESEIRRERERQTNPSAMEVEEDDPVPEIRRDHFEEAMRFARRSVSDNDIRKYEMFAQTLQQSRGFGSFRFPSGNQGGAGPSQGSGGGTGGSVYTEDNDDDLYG

| Structure (SMILES) | IC50 (p97; [2]) | IC50 [1, 3] | IC50 (p97; p97 ATPase assay) | IC50 [1, 4] |
| --- | --- | --- | --- | --- |
| COc1ccc(-c2nc(NCc3ccc(C)cc3)c3ccccc3n2)cc1 [I-21] | 8 ± 2 µM | 12 ± 2 µM | – | – |
| Clc1ccc(-c2nc(NCc3ccccc3)c3ccccc3n2)cc1 [I-6] | 5.5 ± 1.9 µM | 20 ± 3 µM | – | – |
| Cc1cc(F)cc(Nc2nc(NCc3ccccc3)c3ccccc3n2)c1 [V-3] | 0.7 ± 0.05 µM | 5.4 ± 0.8 µM | – | – |
| COc1cccc2c(NCc3ccc(O)cc3)nc(N3CCOc4ccccc43)nc12 [XII-10] | 2.4 ± 0.5 µM | 7.3 ± 1 µM | – | – |
| c1ccc(CNc2ccnc(N3CCOc4ccccc43)n2)cc1 [XX] | – | – | 2.9 ± 0.2 µM | 27 ± 3 µM |
| COc1cccc2c(NCc3ccccc3)nc(Nc3nc4ccccc4n3C)nc12 [XI-6] | 0.3 ± 0.07 µM | 7.8 ± 1.2 µM | – | – |
| COc1cccc2c(NCc3ccccc3)nc(Nc3ccccc3O)nc12 [XI-10] | 2.6 ± 0.4 µM | 2.8 ± 0.5 µM | – | – |
| Cc1ccc(-c2nc(NCc3ccccc3)c3ccccc3n2)cc1 [I-10] | 5.7 ± 0.7 µM | 13 ± 2 µM | – | – |
| Clc1cccc(Nc2nc(NCc3cccc(Br)c3)c3ccccc3n2)c1 [III-14] | 3.7 ± 0.9 µM | 9.9 ± 2 µM | – | – |
| Nc1nc(CCl)nc(N(c2ccccc2)c2ccccc2)n1 [XIII] | 13 ± 5 µM | 10 ± 2 µM | – | – |
| Fc1ccc2nc(NCc3ccccc3)nc(NCc3ccccc3)c2c1 [VI-15] | 4.7 ± 0.4 µM | 8.2 ± 1.5 µM | – | – |
| Nc1nc(CCl)nc(Nc2ccc(Oc3ccccc3)cc2)n1 [XV] | 14 ± 5 µM | 3.7 ± 0.6 µM | – | – |
| Clc1ccccc1Nc1nc(NCc2ccccc2)c2ccccc2n1 [II-8] | – | – | 69 ± 25 µM | 13 ± 2 µM |
| CCCCc1cccc2c(NCc3ccccc3)nc(N3CCOc4ccccc43)nc12 [VII-15] | – | – | 2.63 ± 0.7 µM | 28 ± 3 µM |
| OCCOc1cccc2c(NCc3ccccc3)nc(N3CCOc4ccccc43)nc12 [VII-9] | 0.17 ± 0.05 µM | 3.8 ± 0.8 µM | – | – |
| COc1ccc(CNc2nc(Nc3cccc(Cl)c3)nc3ccccc23)cc1 [III-5] | 2.3 ± 0.6 µM | 11 ± 4 µM | – | – |
| COc1cccc2c(NCc3ccccc3)nc(N3CCOc4ccccc43)nc12 [VII-6] | 0.2 ± 0.02 µM | 3.3 ± 0.4 µM | – | – |

| Structure (SMILES) | IC50 (p97; [2]) | IC50 [1, 3] | IC50 (p97; p97 ATPase assay) | IC50 [1, 4] |
| --- | --- | --- | --- | --- |
| COc1cccc2c(NCc3ccccc3)nc(NC(C)c3ccccc3)nc12 (stereo not drawn) [XI-11] | 12 ± 5 µM | 2.1 ± 0.7 µM | – | – |
| Clc1ccc(CNc2nc(NCc3ccccc3)c3ccccc3n2)cc1 [IV-2] | 3.1 ± 0.2 µM | 2.1 ± 0.4 µM | – | – |
| COc1cccc2c(NCc3ccccc3)nc(N3CCN(C(C)=O)c4ccccc43)nc12 [VII-13] | 2.7 ± 0.6 µM | 8 ± 1 µM | – | – |
| COc1cccc2c(NCc3ccccc3)nc(-n3c(N)nc4ccccc43)nc12 [VII-16] | 0.11 ± 0.03 µM | 0.9 ± 0.1 µM | – | – |
| COc1cccc2c(NCc3ccccc3)nc(N3CCN(C)c4ccccc43)nc12 [VII-12] | 3.1 ± 0.5 µM | 7.8 ± 0.7 µM | – | – |
| Cc1ccccc1Nc1nc(NCc2ccccc2)c2ccccc2n1 [II-7] | 3.4 ± 1.5 µM | 10 ± 2 µM | – | – |
| CC(Nc1nc(N2CCOCC2)nc2ccccc12)c1ccccc1 (stereo not drawn) [XLVI] | – | – | 34 ± 10 µM | 36 ± 0.3 µM |
| c1ccc(CNc2nc(N3CCNc4ccccc43)nc3ccccc23)cc1 [VII-4] | 0.4 ± 0.05 µM | 6.3 ± 1 µM | – | – |
| COc1cccc2c(NCc3ccccc3)nc(N3CCOCC3)nc12 [XI-2] | – | – | 31 ± 7 µM | 47 ± 9 µM |
| c1ccc(CNc2nc(N3CCOc4ccccc43)nc3c2CCCC3)cc1 [VIII] | 0.11 ± 0.03 µM | 3.5 ± 0.4 µM | – | – |
| COc1cccc2c(NCc3ccccc3O)nc(N3CCOc4ccccc43)nc12 [XII-8] | 4.6 ± 1 µM | 6 ± 0.6 µM | – | – |
| CN(Cc1ccccc1)c1nc(-c2ccc([N+](=O)[O-])cc2)nc2ccccc12 [I-28] | 8.4 ± 4 µM | 28 ± 4 µM | – | – |
| COc1cccc2c(NCc3cccc(N(C)C)c3)nc(N3CCOc4ccccc43)nc12 [XII-2] | – | – | 52 ± 10 µM | 19 ± 4 µM |
| COc1cccc2c(NCc3ccccc3)nc(NC(=O)N(C)C)nc12 [XI-7] | – | – | 60 ± 23 µM | 37 ± 7 µM |
| Clc1ccccc1-c1nc(N2CCCc3ccccc32)c2ccccc2n1 [XXIV] | – | – | > 30 µM | 11 ± 0.8 µM |
| COc1ccc(-c2nc(NCc3ccccc3)c3ccccc3n2)cc1 [I-9] | 1.6 ± 0.3 µM | 15 ± 2 µM | – | – |
